# Measurements reported in patent US9688736B2, “Compound for treatment of severe hypoglycemia” (Eli Lilly and Company, priority 2013, dated 2017).
# Read-outs that look alike come from different tables or passages of the source. Square brackets hold non-standard residues; d marks the D form. Peptide text beside a SMILES is read from it. Aib = CC(C)(N)C(=O)O
# Columns and labels:
# [1] = format: physicochemical
# Method: The compound of SEQ ID NO: 2 is dissolved in 20 mM Tris-HCl/H2O, pH 8 to a 1 mg/mL concentration (peptide content), and filtered through a 0.22 micron filter (Millex, SLGV004SL). Solution is transferred to three vials: one for 4° C.; one for 30° C. and one for 40° C. […]. Samples are visually assessed at different time points for turbidity and phase separation.
# [2] = Physical stability test using Thioflavin T binding assay (fibrillation); format: physicochemical; settings: 25° C.; for Thioflavin T fluorescence: 1 mg/mL, stirred 300 rpm
# Method: Fibrillation is a common problem when glucagon is formulated in aqueous solution. To assess the level of fibrillation of the compound of the present invention, a Thioflavin T binding assay is performed.
# All samples are mechanically stressed at 25° C. in a magnetic stir plate set at 300 rpm. […] Raw data is collected with Softmax Pro 5.4.1 (Molecular Devices) and imported to Excel.
# [3] = test system: male C57BL6 mice; assay: Effects of compound on blood glucose levels in C57/B16 male mice; format: in vivo; settings: for Blood glucose levels after dosing: mean ± SEM, n=4
# Method: To determine the effects of the compound of SEQ ID NO: 2 on blood glucose levels, the compound is administered to C57/B 16 mice. Three month old male C57BL6 mice (Harlan Laboratories) are used Animals are individually housed in a temperature-controlled (24° C.) facility with a 12 hour light/dark cycle, and have free access to food and water. After 1 week acclimation to the facility, mice are randomized to treatment groups (n=4/group). Test compound is formulated in Buffer 2 (see Physical stability test using Thioflavin T binding assay). On the morning of test, food is removed at 08:00 AM. Two hours after food is removed, the test compound is given subcutaneously at 0, 1, 3 or 10 μg/kg doses. Blood glucose is measured at time 0, 15, 30, 60 and 120 minutes after test compound administration with an ACCU-CHECK® (Roche Diagnostics) glucometer. […] Results are expressed as mean ±standard error mean (SEM) of 4 mice per group.
# Blood glucose levels at 10 μg/kg of compound of SEQ ID NO: 2 is taken as the maximum value.
# [4] = target: T1, human glucagon receptor (hGR) (Homo sapiens, UniProt P47871); assay: Human glucagon receptor binding assay (SPA); settings: 293HEK membranes, 125I-labelled glucagon
# T1 construct: expressed in transfected cells; host or cells: 293HEK (crude plasma membranes)
# T1 sequence (P47871 26-477): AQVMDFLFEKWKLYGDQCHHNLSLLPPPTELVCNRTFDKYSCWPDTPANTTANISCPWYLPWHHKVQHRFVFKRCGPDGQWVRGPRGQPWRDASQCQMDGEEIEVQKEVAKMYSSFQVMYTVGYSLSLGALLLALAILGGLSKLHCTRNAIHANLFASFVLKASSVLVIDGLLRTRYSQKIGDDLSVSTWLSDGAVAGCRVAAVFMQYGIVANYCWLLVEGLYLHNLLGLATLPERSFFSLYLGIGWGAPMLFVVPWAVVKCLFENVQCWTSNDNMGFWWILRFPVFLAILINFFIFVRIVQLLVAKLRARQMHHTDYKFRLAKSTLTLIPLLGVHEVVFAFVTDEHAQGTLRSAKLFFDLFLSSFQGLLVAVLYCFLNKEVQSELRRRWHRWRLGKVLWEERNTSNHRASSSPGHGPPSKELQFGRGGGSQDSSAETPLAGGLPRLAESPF
# Method: Plates are sealed, mixed end over end, and read with a MicroBeta® scintillation counter after 12 hours of settling time at room temperature.
# [5] = target: T2, mouse glucagon receptor (mGR) (Mus musculus, UniProt Q61606); assay: Mouse glucagon receptor binding assay (SPA); settings: 293HEK membranes, 125I-labelled glucagon
# T2 construct: expressed in transfected cells; host or cells: 293HEK cells in suspension culture (crude plasma membranes)
# T2 sequence (Q61606 27-485): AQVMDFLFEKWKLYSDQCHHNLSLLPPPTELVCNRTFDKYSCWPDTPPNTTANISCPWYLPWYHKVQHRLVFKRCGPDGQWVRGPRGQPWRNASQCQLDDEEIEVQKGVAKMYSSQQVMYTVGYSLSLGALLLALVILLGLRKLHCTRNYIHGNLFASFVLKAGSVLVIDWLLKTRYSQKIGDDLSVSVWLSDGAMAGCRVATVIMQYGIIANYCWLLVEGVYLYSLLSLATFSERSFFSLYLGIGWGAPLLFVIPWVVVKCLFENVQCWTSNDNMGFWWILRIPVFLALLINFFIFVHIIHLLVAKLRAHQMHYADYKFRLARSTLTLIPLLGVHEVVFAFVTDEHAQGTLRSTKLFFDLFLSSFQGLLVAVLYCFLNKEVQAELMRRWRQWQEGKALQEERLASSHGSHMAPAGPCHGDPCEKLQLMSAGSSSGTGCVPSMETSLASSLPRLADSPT
# [6] = target: T3, human glucagon-like peptide 1 receptor (hGLP-1R) (Homo sapiens, UniProt P43220); assay: Glucagon-like-peptide 1 receptor binding assay (SPA); settings: 293HEK membranes, 125I-labelled GLP-1 amide
# T3 construct: expressed in transfected cells; host or cells: 293HEK suspension cells (crude plasma membranes)
# T3 sequence (P43220 24-463): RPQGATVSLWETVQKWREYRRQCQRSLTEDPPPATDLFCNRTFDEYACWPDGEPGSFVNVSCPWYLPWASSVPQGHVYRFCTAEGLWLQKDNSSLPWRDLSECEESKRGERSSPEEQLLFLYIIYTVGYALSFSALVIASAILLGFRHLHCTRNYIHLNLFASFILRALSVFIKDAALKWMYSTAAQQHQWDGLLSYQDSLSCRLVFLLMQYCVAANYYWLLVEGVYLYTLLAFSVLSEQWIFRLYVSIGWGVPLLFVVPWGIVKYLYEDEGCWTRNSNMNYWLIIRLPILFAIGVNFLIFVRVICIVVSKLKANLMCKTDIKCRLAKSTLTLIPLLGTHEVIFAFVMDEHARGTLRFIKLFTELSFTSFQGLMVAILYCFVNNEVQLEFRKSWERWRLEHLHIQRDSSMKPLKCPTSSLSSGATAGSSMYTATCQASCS
# [7] = target: T4, human GIP-R (Homo sapiens, UniProt P48546); assay: Glucose-dependent insulinotropic peptide receptor binding assay (SPA); settings: CHO-S membranes, radioiodinated GIP
# T4 construct: expressed in transfected cells; host or cells: CHO-S suspension cells (crude plasma membranes)
# T4 sequence (P48546 22-466): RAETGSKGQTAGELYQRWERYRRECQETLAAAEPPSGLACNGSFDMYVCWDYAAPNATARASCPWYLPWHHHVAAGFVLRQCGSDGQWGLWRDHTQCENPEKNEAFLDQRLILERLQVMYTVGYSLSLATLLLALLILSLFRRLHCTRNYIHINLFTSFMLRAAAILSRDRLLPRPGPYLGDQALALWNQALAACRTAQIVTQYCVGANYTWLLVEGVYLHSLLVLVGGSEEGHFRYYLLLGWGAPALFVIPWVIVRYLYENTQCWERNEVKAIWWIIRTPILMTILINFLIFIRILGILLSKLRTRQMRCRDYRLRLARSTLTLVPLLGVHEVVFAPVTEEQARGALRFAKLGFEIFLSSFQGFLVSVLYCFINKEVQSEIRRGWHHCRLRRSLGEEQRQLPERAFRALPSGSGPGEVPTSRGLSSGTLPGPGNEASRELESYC
# [8] = target: T1, human glucagon receptor (hGR); assay: Human glucagon receptor stimulated cAMP functional assay; format: cell-based; settings: hGR-HEK293 cells, relative EC50, HTRF cAMP
# Method: Cells are stimulated with glucagon, buffer controls, or Test samples, and the cAMP generated within the cell is quantitated using the CisBio cAMP Dynamic 2 HTRF Assay Kit (62AM4PEC). Briefly, cAMP levels within the cell are detected by binding to the cAMP-d2 capture antibody in the presence of cell lysis buffer. A second detection antibody provided in the kit, anti-cAMP Cryptate, is added to create a competitive sandwich assay. When the detection antibody complex formed there is an increase in the signal that is measured on a Perkin-Elmer Envision® instrument.
# The hGR-HEK293 cells are harvested from sub-confluent tissue culture dishes with Enzyme-Free Cell Dissociation Solution (Specialty Media 5-004-B). The cells are pelleted at 100× g at room temperature for 5 minutes then washed twice with phosphate buffered saline (PBS). […] The cells are then pelleted at 100× g at room temperature for 5 minutes. […] Test samples are prepared as 2 mM stocks in DMSO and frozen at −20° C. until needed. […] The reaction is stopped by addition of 20 μL of the cAMP-d2-capture antibody (CisBio) diluted into the CisBio lysis buffer then gently mixed in [sequence] shaker. […] The lysed cell and antibody mixtures are read after 1 hour at room temperature using the Perkin-Elmer Envision®. […]
# [9] = pH 8, 120 hours, mechanical stress
smiles,measurement,setting,value
CC(C)C[C@H](NC(=O)[C@H](Cc1c[nH]c2ccccc12)NC(=O)[C@H](C)NC(=O)[C@@H](NC(=O)[C@H](Cc1ccccc1)NC(=O)[C@H](CCC(=O)O)NC(=O)[C@H](C)NC(=O)[C@H](C)NC(=O)[C@H](CCCCN)NC(=O)[C@H](CCCCN)NC(=O)C(C)(C)NC(=O)[C@H](CC(=O)O)NC(=O)[C@H](CC(C)C)NC(=O)[C@H](Cc1ccc(O)cc1)NC(=O)[C@H](CCCCN)NC(=O)[C@H](CO)NC(=O)[C@@H](NC(=O)[C@H](CC(=O)O)NC(=O)[C@H](CO)NC(=O)[C@@H](NC(=O)[C@H](Cc1ccccc1)NC(=O)[C@@H](NC(=O)CNC(=O)[C@H](Cc1c[nH]cn1)NC(=O)[C@H](CO)NC(=O)[C@@H](N)Cc1ccc(O)cc1)[C@@H](C)O)[C@@H](C)O)C(C)C)C(C)C)C(=O)N[C@@H](CC(C)C)C(=O)N[C@@H](CCC(=O)O)C(=O)N[C@@H](CCC(=O)O)C(=O)O [SEQ ID NO: 2] (H-YSHGTFTSDVSKYLD[Aib]KKAAEFVAWLLEE-OH; N-terminus assumed),4° C. % Main Peak 4 wk,"[1]; RP-HPLC, pH 8, 4° C., 4 wk",95.94%
same,30° C. % Main Peak 4 wk,"[1]; RP-HPLC, pH 8, 30° C., 4 wk",93.73%
same,40° C. % Main Peak 4 wk,"[1]; RP-HPLC, pH 8, 40° C., 4 wk",89.54%
same,% Main Peak Day 0,"[1]; RP-HPLC, pH 8, day 0",96.26%
same,Solubility by visual assessment and RP-HPLC,[1]; pH 8,maintains good solubility
same,RP-HPLC main peak change,"[1]; pH 8, 4-wk 30° C. vs 4° C.",< 2.5%
same,RP-HPLC main peak change,"[1]; pH 8, 4-wk 40° C. vs 4° C.",< 7%
same,30° C. vs 4° C. Recovery 4 wk,"[1]; pH 8, total peak area, 4 wk",101%
same,40° C. vs 4° C. Recovery 4 wk,"[1]; pH 8, total peak area, 4 wk",99%
same,Fibrillation as measured by the Thioflavin T binding assay,[2]; [9],did not demonstrate significant fibrillation
same,Physical stability by visual assessment and Thioflavin T binding,[2]; [9],maintains physical stability
same,Thioflavin T fluorescence,"[2]; Buffer 1 (20 mM Tris-HCl pH 8.0), t = 0 h",193.9 flurescence units
same,Thioflavin T fluorescence,"[2]; Buffer 1 (20 mM Tris-HCl pH 8.0), t = 40 h",201.6 flurescence units
same,Thioflavin T fluorescence,"[2]; Buffer 1 (20 mM Tris-HCl pH 8.0), t = 120 h",226.1 flurescence units
same,Thioflavin T fluorescence,"[2]; Buffer 2 (20 mM Tris-HCl, 150 nM NaCl, pH 8.0), t = 0 h",182.2 flurescence units
same,Thioflavin T fluorescence,"[2]; Buffer 2 (20 mM Tris-HCl, 150 nM NaCl, pH 8.0), t = 40 h",210.1 flurescence units
same,Thioflavin T fluorescence,"[2]; Buffer 2 (20 mM Tris-HCl, 150 nM NaCl, pH 8.0), t = 120 h",213.6 flurescence units
same,Thioflavin T fluorescence,"[2]; Buffer 3 (20 mM Tris-HCl, 300 mM sucrose, pH 8.0), t = 0 h",263.3 flurescence units
same,Thioflavin T fluorescence,"[2]; Buffer 3 (20 mM Tris-HCl, 300 mM sucrose, pH 8.0), t = 40 h",297.0 flurescence units
same,Thioflavin T fluorescence,"[2]; Buffer 3 (20 mM Tris-HCl, 300 mM sucrose, pH 8.0), t = 120 h",310.9 flurescence units
same,Thioflavin T fluorescence,"[2]; Buffer 4 (20 mM Tris-HCl, 300 mM sorbitol, pH 8.0), t = 0 h",260.9 flurescence units
same,Thioflavin T fluorescence,"[2]; Buffer 4 (20 mM Tris-HCl, 300 mM sorbitol, pH 8.0), t = 40 h",285.1 flurescence units
same,Thioflavin T fluorescence,"[2]; Buffer 4 (20 mM Tris-HCl, 300 mM sorbitol, pH 8.0), t = 120 h",311.2 flurescence units
same,Thioflavin T fluorescence,"[2]; Buffer 5 (20 mM Tris-HCl, 0.02% Tween 80, pH 8.0), t = 0 h",251.7 flurescence units
same,Thioflavin T fluorescence,"[2]; Buffer 5 (20 mM Tris-HCl, 0.02% Tween 80, pH 8.0), t = 40 h",281.7 flurescence units
same,Thioflavin T fluorescence,"[2]; Buffer 5 (20 mM Tris-HCl, 0.02% Tween 80, pH 8.0), t = 120 h",306.8 flurescence units
same,Blood glucose levels after dosing,"[3]; 1 μg/kg subcutaneously, 0 minutes",132.0 ± 4.1 mg/dL
same,Blood glucose levels after dosing,"[3]; 1 μg/kg subcutaneously, 15 minutes",203.0 ± 15.8 mg/dL
same,Blood glucose levels after dosing,"[3]; 1 μg/kg subcutaneously, 30 minutes",220.4 ± 21.4 mg/dL
same,Blood glucose levels after dosing,"[3]; 1 μg/kg subcutaneously, 60 minutes",171.6 ± 10.2 mg/dL
same,Blood glucose levels after dosing,"[3]; 1 μg/kg subcutaneously, 120 minutes",168.9 ± 3.7 mg/dL
same,Blood glucose levels after dosing,"[3]; 3 μg/kg subcutaneously, 0 minutes",147.8 ± 2.6 mg/dL
same,Blood glucose levels after dosing,"[3]; 3 μg/kg subcutaneously, 15 minutes",246.4 ± 13.1 mg/dL
same,Blood glucose levels after dosing,"[3]; 3 μg/kg subcutaneously, 30 minutes",274.9 ± 16.3 mg/dL
same,Blood glucose levels after dosing,"[3]; 3 μg/kg subcutaneously, 60 minutes",201.1 ± 13.2 mg/dL
same,Blood glucose levels after dosing,"[3]; 3 μg/kg subcutaneously, 120 minutes",172.8 ± 8.9 mg/dL
same,Blood glucose levels after dosing,"[3]; 10 μg/kg subcutaneously, 0 minutes",146.0 ± 8.2 mg/dL
same,Blood glucose levels after dosing,"[3]; 10 μg/kg subcutaneously, 15 minutes",257.3 ± 7.7 mg/dL
same,Blood glucose levels after dosing,"[3]; 10 μg/kg subcutaneously, 30 minutes",294.0 ± 13.3 mg/dL
same,Blood glucose levels after dosing,"[3]; 10 μg/kg subcutaneously, 60 minutes",222.2 ± 13.9 mg/dL
same,Blood glucose levels after dosing,"[3]; 10 μg/kg subcutaneously, 120 minutes",147.0 ± 6.7 mg/dL
same,ED50 (blood glucose increase),"[3]; calculated on the 30 minute glucose measurements, 10 μg/kg taken as maximum, subcutaneous",3.34 µg/kg
same,Ki,[4],3.2 ± 0.76 nM
same,Ki,[5],8.63 ± 0.71 nM
same,Ki,[6],> 3380 nM
same,Ki,[7],> 2240 nM
same,EC50,[8],0.0658 ± 0.0167 nM
